Values joined by “and” are separate entries in the source; they are usually repeats but may differ in a detail not shown here. Equal entries are not always repeated.
Key:
[1] = target: T1, Calf skin collagen Type I (Bos taurus, UniProt P02453+P02465); assay: Collagen crosslinking by 3DG in vitro (CNBr digestion, SDS-PAGE); type: biochemical; settings: 37° C., 24 hours
T1 construct: Calf skin collagen Type I (1.3 mg; Sigma); purchased Sigma; host or cells: calf skin (tissue-derived)
Method: Collagen type I was treated with 3DG in the presence or absence of arginine. The samples were subjected to cyanogen bromide (CNBr) digestion, electrophoresed on a 16.5% SDS Tris-tricine gel, and then the gels were processed using silver stain techniques to visualize the proteins. Lane 1 contains molecular weight marker standards. Lanes 2 and 5 contain 10 and 20 μl of the collagen mixture following CNBr digestion. Lanes 3 and 6 contain the collagen mixture treated with 3DG and then digested with CNBr, and loaded at 10 and 20 μl, respectively. Lanes 4 and 7 contain the mixture of collagen incubated with 5 mM 3DG and 10 mM arginine and then digested with CNBr, and loaded at 10 and 20 μl, respectively.
Collagen I was incubated in the presence or absence of 3DG in vitro. Calf skin collagen Type I (1.3 mg; Sigma) was incubated in 20 mM Na-phosphate buffer, pH 7.25, either alone, with 5 mM 3DG, or with 5 mM 3DG plus 10 mM arginine, in a total volume of 1 ml at 37° C. for 24 hours and then frozen and lyophilized. The residue was dissolved in 0.5 ml of 70% formic acid and cyanogen bromide was added (20:1, w/w). This solution was incubated at 30° C. for 18 hours. […] The extent of collagen crosslinking was determined by applying equal volumes of sample and analyzing by SDS-PAGE electrophoresis (16.5% Tris-tricine gel), as determined by the effects of 3DG on the migration of collagen.

[2] = test system: 3-deoxyglucosone; assay: Reduction of urinary and plasma 3-deoxyglucosone in rats; type: in vivo, rat; settings: for Plasma 3-deoxyglucosone reduced / average reduction of urinary 3-deoxyglucosone: rats, 10 μmols intraperitoneal; for Plasma 3-deoxyglucosone reduced: plasma at end of three hours; for average reduction of urinary 3-deoxyglucosone: urine three hours after vs before, normalized to creatinine
Method: Urine was collected from six rats for three hours. A plasma sample was also obtained. The animals were then given 10 μmols of either sorbitollysine, mannitollysine, or galactitollysine by intraperitoneal injection. Urine was collected for another three hours, and a plasma sample obtained at the end of the three hours.
a. 3-deoxyglucosone was measured in the samples, as described in Example 5, below, and variable volumes were normalized to creatinine. The average reduction of urinary 3-deoxyglucosone was 50% by sorbitollysine, 35% by mannitollysine and 35% by galactitollysine. Plasma 3-deoxyglucosone was reduced 40% by sorbitollysine, 58% by mannitollysine and 50% by galactitollysine.
Three rats were treated as in b), immediately above, except meglumine (100 μmols) was injected intraperitoneally instead of the above-mentioned lysine derivatives. Three hours after the injection the average 3-deoxyglucosone concentrations in the urine were decreased 42%.
3DG was measured by GC-MS after deionization of the sample. 3DG was derivatized with a 10-fold excess of diaminonaphthalene in PBS. Ethyl acetate extraction gave a salt free fraction which was converted to the trimethyl silyl ethers with Tri-Sil (Pierce). Analysis was performed on a Hewlett-Packard 5890 selected ion monitoring GC-MS system. GC was performed on a fused silica capillary column (DB-5.25 mx. […]) using the following temperature program: injector port 250° C., initial column temperature 150° C. which is held for 1 minute, then increased to 290° C. at 16° C./minute and held for 15 minutes. Quantitation of 3DG employed selected ion monitoring using an internal standard of U-13C-3DG.

[3] = test system: 3DG; assay: Plasma 3DG levels in diabetic and non-diabetic rats treated with 3-O-methyl sorbitollysine; type: in vivo, rat; settings: for plasma 3DG level: 50 mg/kg body weight injections, within one week
Method: A cohort of twelve diabetic rats was divided into two groups of six. The first group received saline-only injections, and the second received injections of 3-O-methyl sorbitollysine (50 mg/kg body weight) in saline solution. The same procedure was conducted on a cohort of twelve non-diabetic rats.

[4] = Locus of 3-O-methyl sorbitollysine uptake in vivo (recovery from tissues, urine, plasma); set-up: species or system rat
Method: […] Urine was collected for 3 hours, after which the rats were sacrificed. The tissues to be analyzed were removed and freeze clamped in liquid nitrogen. Perchloric acid extracts of the tissues were used for metabolite analysis. The tissues examined were taken from the brain, heart, muscle, sciatic nerve, spleen, pancreas, liver, and kidney. Plasma was also analyzed.

[5] = test system: skin of STZ-diabetic rats; assay: Skin elasticity measurement (vacuum pull) in STZ-diabetic and normal rats; type: in vivo, rat; settings: 50 mg/kg daily subcutaneous, eight weeks
Method: Experiments were performed to determine the effects of DYN 12 on the loss of skin elasticity associated with diabetes. To this end, two groups of STZ-diabetic rats and two groups of normal rats were subjected to treatment with DYN 12 or saline. One group of STZ-diabetic rats (n=9) received daily subcutaneous injections of DYN 12 at 50 mg/kg for eight weeks, as did one group of normal rats (n=6). A group of control diabetic rats (n=10) and a group of normal rats (n=6) received saline instead of DYN 12. One rat was removed from the diabetic DYN 12 group after 2 weeks because its blood glucose readings were inconsistent (too low) with other diabetic rats.
A non-invasive procedure based on CyberDERM, Inc. technology utilizing a skin elasticity measurement device was used to test the effects of DYN 12 treatment on skin elasticity. The procedure provides for non-invasive measurement of skin elasticity based upon the amount of vacuum pull required to displace skin. A suction cup probe is adhered to an area of shaved skin in order to form an airtight seal. Then, a vacuum is applied to the area of the skin inside the suction cup until the skin is displaced past a sensor located inside the probe. Accordingly, the more pressure that is required to displace the skin, the less elastic the skin is.

[6] = test system: diabetic rats; assay: Muscle strength / resistance to pull in alert restrained diabetic rats; type: in vivo, rat; settings: diabetic rats treated vs not treated; preliminary data
Description: The present invention also encompasses methods for prevention of hair loss associated with or mediated by loss of microcirculation and/or loss of neuro-innervation in populations of aging, sclerodermic and/or in diabetic individuals. This is because 3DG is a known precursor to the formation of AGEs which are known to be causally connected to the development of neuropathy. […] This supports the concept that maintenance of nerve conduction and microcirculation that supports nerve innervation is deleteriously affected not only by AGEs, but also 3DG. Similarly, where 3DG would cause blockage of the microcirculation that supports nerve innervation of the hair follicle, the hair follicle will atrophy and die, as is the case in neuropathy. Accordingly, the present invention includes methods for preventing hair loss, where such hair loss is associated with or mediated by the presence of 3DG in the skin proximal to a hair follicle/shaft.
Skin elasticity measurements were also taken on the test subjects as described above, but without sedating the test animals before measurement. FIG. 15 illustrates skin elasticity measurements taken on the hind leg of the test subjects while the subjects were alert and being restrained by a technician.
In these experiments, the animals were fiercely fighting restraint and the results are different.

[7] = test system: mouse mesangial cells; assay: Type IV collagen production in kidney cells in vitro; type: cell-based
Method: Type IV collagen production was measured in mouse mesangial cells. Controls (grown with […]) produced 300 ng of Type IV collagen per 10,000 cells, whereas fructoselysine treated cells (5 or 10 mM fructoselysine with 10 mM glucose) produced 560 and 1100 ng/10,000 cells.

[8] = set-up: species or system human; settings: in vivo
Method: Volunteers spent two days on a fructoselysine-free diet and then consumed 22.5 g of the food product prepared as described herein, thus effectively receiving a 2 gram dose of fructoselysine. Urine was collected at 2 hour intervals for 14 hours and a final collection was made at 24 hours. FL was measured by HPLC with a Waters 996 diode Array using a Waters C18 Free Amino Acid column at 46° C. and a gradient elution system of acetonitrile-methyl alcohol-water (45:15:40) into acetonitrile-sodium acetate-water (6:2:92) at 1 ml/min. Quantitation employed an internal standard of meglumine. 3DF was measured by HPLC after deionization of the sample. Analyses were performed on a Dionex DX-500 HPLC system employing a PA1 column (Dionex) and eluting with 32 mM sodium hydroxide at 1 ml/min. Quantitation was performed from standard curves obtained daily with synthetic 3DF. 3DG was measured by GC-MS after deionization of the sample. 3DG was derivatized with a 10-fold excess of diaminonaphthalene in PBS. Ethyl acetate extraction gave a salt free fraction which was converted to the trimethyl silyl ethers with Tri-Sil (Pierce). Analysis was performed on a Hewlett-Packard 5890 selected ion monitoring GC-MS system. […] Quantitation of 3DG employed selected ion monitoring using an internal standard of U-13C-3DG.

T1 sequence (P02453 162-1217 limits assumed): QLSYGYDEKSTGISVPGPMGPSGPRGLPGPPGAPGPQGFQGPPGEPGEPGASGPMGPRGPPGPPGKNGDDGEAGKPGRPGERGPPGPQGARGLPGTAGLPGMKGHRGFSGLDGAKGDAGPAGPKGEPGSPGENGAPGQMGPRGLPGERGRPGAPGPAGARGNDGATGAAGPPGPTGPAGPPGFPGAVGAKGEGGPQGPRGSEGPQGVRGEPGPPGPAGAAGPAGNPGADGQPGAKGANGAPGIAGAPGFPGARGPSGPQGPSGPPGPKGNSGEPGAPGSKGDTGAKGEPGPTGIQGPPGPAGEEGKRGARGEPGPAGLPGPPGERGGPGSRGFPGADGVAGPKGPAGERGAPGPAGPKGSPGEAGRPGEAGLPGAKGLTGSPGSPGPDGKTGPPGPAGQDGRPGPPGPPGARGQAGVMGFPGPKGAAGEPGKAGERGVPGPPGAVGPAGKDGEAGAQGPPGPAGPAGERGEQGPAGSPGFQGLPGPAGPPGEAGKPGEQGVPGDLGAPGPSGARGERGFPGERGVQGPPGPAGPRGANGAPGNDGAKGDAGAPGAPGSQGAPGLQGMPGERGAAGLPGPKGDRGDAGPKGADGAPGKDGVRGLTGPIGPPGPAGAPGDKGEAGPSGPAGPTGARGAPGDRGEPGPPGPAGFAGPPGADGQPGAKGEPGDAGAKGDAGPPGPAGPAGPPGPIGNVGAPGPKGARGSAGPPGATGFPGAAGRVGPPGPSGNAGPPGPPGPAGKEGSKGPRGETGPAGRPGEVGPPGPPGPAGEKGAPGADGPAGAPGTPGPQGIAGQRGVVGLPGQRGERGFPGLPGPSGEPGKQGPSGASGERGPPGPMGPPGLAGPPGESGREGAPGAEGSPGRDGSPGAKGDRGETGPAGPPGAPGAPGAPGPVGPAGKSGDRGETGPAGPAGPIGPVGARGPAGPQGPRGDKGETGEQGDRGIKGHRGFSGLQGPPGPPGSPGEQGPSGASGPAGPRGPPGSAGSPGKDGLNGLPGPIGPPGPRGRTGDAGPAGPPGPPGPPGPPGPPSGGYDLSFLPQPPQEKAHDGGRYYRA
T1 sequence (P02465 80-1117 limits assumed): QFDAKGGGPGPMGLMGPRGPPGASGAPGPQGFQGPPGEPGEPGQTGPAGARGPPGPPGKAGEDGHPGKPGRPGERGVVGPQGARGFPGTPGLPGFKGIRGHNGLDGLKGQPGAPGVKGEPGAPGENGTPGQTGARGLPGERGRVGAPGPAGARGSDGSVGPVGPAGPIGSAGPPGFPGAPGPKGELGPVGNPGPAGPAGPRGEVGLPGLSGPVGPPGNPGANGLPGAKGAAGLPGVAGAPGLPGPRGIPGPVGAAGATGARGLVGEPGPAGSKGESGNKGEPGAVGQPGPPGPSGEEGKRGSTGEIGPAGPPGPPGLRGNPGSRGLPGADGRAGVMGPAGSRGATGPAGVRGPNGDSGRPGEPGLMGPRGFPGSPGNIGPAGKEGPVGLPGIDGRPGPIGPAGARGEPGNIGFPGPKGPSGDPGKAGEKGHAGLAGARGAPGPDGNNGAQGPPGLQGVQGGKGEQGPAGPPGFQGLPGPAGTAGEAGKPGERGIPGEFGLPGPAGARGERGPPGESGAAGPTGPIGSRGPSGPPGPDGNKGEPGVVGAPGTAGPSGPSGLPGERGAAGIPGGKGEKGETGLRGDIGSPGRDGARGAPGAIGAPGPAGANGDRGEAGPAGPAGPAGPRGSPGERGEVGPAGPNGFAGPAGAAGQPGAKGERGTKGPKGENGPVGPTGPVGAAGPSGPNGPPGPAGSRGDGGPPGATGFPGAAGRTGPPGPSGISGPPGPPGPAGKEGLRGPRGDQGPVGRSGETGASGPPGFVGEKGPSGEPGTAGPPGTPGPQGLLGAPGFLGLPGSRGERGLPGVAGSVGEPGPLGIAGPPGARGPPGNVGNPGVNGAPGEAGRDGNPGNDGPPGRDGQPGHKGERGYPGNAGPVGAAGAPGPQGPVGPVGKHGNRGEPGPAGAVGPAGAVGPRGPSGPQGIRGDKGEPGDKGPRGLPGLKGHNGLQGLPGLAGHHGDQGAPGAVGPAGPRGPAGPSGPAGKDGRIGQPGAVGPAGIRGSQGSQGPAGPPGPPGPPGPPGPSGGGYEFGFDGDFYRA

## N=C(N)NCCC[C@H](N)C(=O)O [arginine, reference compound]
[1]; 5 mM 3DG plus 10 mM arginine
  inhibition of 3DG induced collagen crosslinking: fewer high molecular bands

## N[C@@H](CCCCNC[C@H](O)[C@@H](O)[C@H](O)[C@H](O)CO)C(=O)O [sorbitollysine]
[2]
  Plasma 3-deoxyglucosone reduced: 40%
  average reduction of urinary 3-deoxyglucosone: 50%

## CO[C@@H]([C@H](O)[C@H](O)CO)[C@@H](O)CNCCCC[C@H](N)C(=O)O [DYN 12, 3-O-methylsorbitollysine]
[3]; Diabetic rats
  % Reduction of plasma 3DG vs saline only: 53%
  plasma 3DG level: 0.44 ± 0.10 µM
[3]; Non-diabetic rats
  % Reduction of plasma 3DG vs saline only: 43%
  plasma 3DG level: 0.13 ± 0.02 µM
[4]; 13500 nmols injected intraperitoneally, sacrificed after 3 hours, one line per rat, listed as 3OMeSL
  nmols 3OMeSL in kidneys: 8155 nmols and 3880 nmols and 10071 nmols and 6582 nmols and 5373 nmols and 4833 nmols
[4]; 13500 nmols injected intraperitoneally, urine collected 3 hours, one line per rat (Rat # 2084-2089), listed as 3OMeSL
  Nmols 3OMeSL in urine: 4200 nmols and 1355 nmols and 2940 nmols and 1675 nmols and 1778 nmols and 2360 nmols
[4]; 3 hours after ip injection
  presence in urine and plasma: The urine also contained 3-O-methyl sorbitollysine, but plasma did not
[4]; brain, heart, muscle, sciatic nerve, spleen, pancreas, liver, kidney examined 3 hours after ip injection
  tissue extracts found to contain the compound: The only tissue extract found to contain 3-O-methyl sorbitollysine was that of the kidney
[4]; urine plus kidneys, one line per rat, listed as 3OMeSL
  % 3OMeSL recovered (percentage of the injected dose recovered from urine and kidney): 91.5% and 38.8% and 96.4% and 61.2% and 53.0% and 53.3%
[4]; urine plus kidneys, one line per rat, listed as 3OMeSL, in nmol
  total 3OMeSL recovered: 12355 and 5235 and 13011 and 8257 and 7151 and 7193
[5]
  amount of pressure needed to displace the skin: 3.2+/−1.2 kPA
[6]
  muscle strength measured while alert: stronger muscle strength

## N[C@@H](CCCCNC[C@H](O)[C@@H](O)[C@@H](O)[C@H](O)CO)C(=O)O [galactitollysine]
[2]
  Plasma 3-deoxyglucosone reduced: 50%
  average reduction of urinary 3-deoxyglucosone: 35%

## O=CC(=O)C[C@H](O)[C@H](O)CO [3DG, 3-deoxyglucosone]
[1]; 5 mM 3DG
  collagen crosslinking (migration on SDS-PAGE): caused the collagen to migrate as if it had a higher molecular weight

## NC(CCCCNCC(=O)C(O)C(O)C(O)CO)C(=O)O (stereo not drawn) [fructoselysine, 1-deoxy-1-(ε-aminolysine)-fructose]
[7]; 5 mM fructoselysine with 10 mM glucose
  Type IV collagen production: 560 ng/10,000 cells
[7]; 10 mM fructoselysine with 10 mM glucose
  Type IV collagen production: 1100 ng/10,000 cells
[8]
  time of peak 3DF excretion in urine after the bolus: about 4 hours

## CNC[C@H](O)[C@@H](O)[C@H](O)[C@H](O)CO [meglumine]
[2]; three rats, 100 μmols intraperitoneal, three hours after the injection
  average 3-deoxyglucosone concentrations in the urine decreased: 42%

## N[C@@H](CCCCNC[C@@H](O)[C@@H](O)[C@H](O)[C@H](O)CO)C(=O)O [mannitollysine]
[2]
  Plasma 3-deoxyglucosone reduced: 58%
  average reduction of urinary 3-deoxyglucosone: 35%
